In the NIST ThermoML archive (doi:10.1021/je800290k):
Where “and” joins values, the source holds several entries; their conditions need not be identical. Equal entries are not always repeated. Numbers after ± are expanded uncertainties.

Conditions: Liquid, Ebulliometric method (Recirculating still)

NCCO [2-aminoethan-1-ol]
Conditions	vapor or sublimation pressure [kPa]
357.46 K	2.98 ± 0.6
362.99 K	3.98 ± 0.6
369.33 K	5.48 ± 0.6
374.29 K	6.98 ± 0.6
378.41 K	8.47 ± 0.6
384.07 K	10.97 ± 0.6
391.14 K	14.96 ± 0.6
398.01 K	19.97 ± 0.61
403.43 K	24.97 ± 0.61
408.19 K	29.97 ± 0.61
415.78 K	39.98 ± 0.62
415.81 K	39.95 ± 0.62
424.61 K	54.95 ± 0.63
429.44 K	64.95 ± 0.64
431.61 K	69.95 ± 0.65
435.61 K	79.95 ± 0.66

CNCCCN [N-methyl-1,3-diaminopropane]
Conditions	vapor or sublimation pressure [kPa]
326.81 K	3.46 ± 0.6
331.62 K	4.47 ± 0.6
337.36 K	5.97 ± 0.6
343.91 K	7.97 ± 0.6
353.78 K	12.48 ± 0.6
365.76 K	20.47 ± 0.61
372.77 K	27.96 ± 0.61
383.53 K	39.97 ± 0.62
397.99 K	64.98 ± 0.63
404.7 K	79.98 ± 0.66
412.5 K	101.27 ± 0.67

CN(CCO)CCO [N-methyldiethanolamine]
Conditions	vapor or sublimation pressure [kPa]
409.69 K	2.48 ± 0.6
413.43 K	2.98 ± 0.6
416.72 K	3.48 ± 0.6
421.96 K	4.48 ± 0.6
426.65 K	5.48 ± 0.6
430.48 K	6.48 ± 0.6
435.5 K	7.98 ± 0.6

O [water]
Conditions	vapor or sublimation pressure
311.63 K	6.78 ± 0.6 kPa
313.24 K	7.38 ± 0.6 kPa
314.99 K	8.11 ± 0.6 kPa
323.11 K	12.28 ± 0.6 kPa
323.14 K	12.28 ± 0.6 kPa
323.15 K	12.27 ± 0.6 kPa
325.47 K	13.78 ± 0.6 kPa
325.61 K	13.8 ± 0.6 kPa
332.76 K	19.84 ± 0.6 kPa
332.85 K	19.84 ± 0.6 kPa
333.13 K	19.58 ± 0.62 kPa
333.17 K	19.88 ± 0.6 kPa and 19.88 ± 0.62 kPa
333.18 K	19.88 ± 0.6 kPa and 19.88 ± 0.62 kPa
333.19 K	19.87 ± 0.6 kPa
340.41 K	27.6 ± 0.61 kPa
340.44 K	27.58 ± 0.61 kPa
340.47 K	27.6 ± 0.61 kPa
348.8 K	39.83 ± 0.62 kPa
348.84 K	39.83 ± 0.62 kPa
349.91 K	41.4 ± 0.62 kPa
349.94 K	41.39 ± 0.62 kPa
349.97 K	41.4 ± 0.62 kPa
353.14 K	47.18 ± 0.63 kPa and 47.19 ± 0.63 kPa
353.15 K	47.18 ± 0.63 kPa
357.02 K	55.17 ± 0.64 kPa
357.07 K	55.18 ± 0.64 kPa
357.08 K	55.17 ± 0.64 kPa
358.87 K	59.88 ± 0.65 kPa
358.92 K	59.88 ± 0.65 kPa
362.55 K	68.92 ± 0.6 kPa
362.59 K	68.92 ± 0.6 kPa
362.8 K	69 ± 0.65 kPa
362.83 K	69 ± 0.6 kPa and 68.98 ± 0.6 kPa
362.89 K	69.83 ± 0.67 kPa
362.93 K	69.83 ± 0.88 kPa
367.48 K	82.79 ± 0.73 kPa
367.49 K	82.79 ± 0.73 kPa
367.67 K	82.79 ± 0.73 kPa
367.69 K	82.79 ± 0.73 kPa and 82.78 ± 0.6 kPa
371.67 K	96.51 ± 0.6 kPa
371.7 K	96.51 ± 0.6 kPa
371.9 K	96.47 ± 0.67 kPa
371.91 K	96.58 ± 0.67 kPa
372.69 K	99.28 ± 0.89 kPa
372.86 K	100.59 ± 0.69 kPa
372.89 K	100.59 ± 0.69 kPa
373.16 K	100.98 ± 0.62 kPa and 100.98 ± 0.66 kPa
